Patent publication US10913787B2, “Method of identifying musk compounds” (Firmenich SA, priority 2015, dated 2021)

Assays:
mouse Olfr96 = assay: cell-based cAMP HTRF dose-response assay, tagged mouse Olfr96 in HEK293T cells
Source text: (§1) In a further embodiment, to complete the deorphanization process, the candidate OR genes are further expressed in vitro for confirmation of activity against the compounds used to isolate the olfactory sensory neurons and other structurally-related compounds of interest. The mouse receptors identified from isolated olfactory neurons that respond to both Musk compounds are modified at their N-terminus with short polypeptide sequences (e.g., Flag (SEQ ID NO: 6), Rho (SEQ ID NO: 8; 20 first amino acids of the bovine rhodopsin receptor), or Lucy (SEQ ID NO: 10) tags), transiently expressed in HEK 293T cells, and stimulated separately with Musk compounds to confirm their identity as bona fide Musk compound receptors. Co-expression of the human G alpha subunit Gαolf in this cell-based assay activates the Gs transduction pathway that leads to an internal cAMP increase upon binding to the appropriate ligand. Alternatively, co-expression of the human G alpha subunit Gals in the cell based assay activates the Gq transduction pathway that leads to an internal Ca^2+ increase upon binding to the appropriate ligand. The above process and the results obtained so far serve to validate the process for rapid and reliable identification of mammalian odorant receptors for Musk compounds.
Functional dose-response experiments were performed to evaluate the level of functional activity of the modified cell line. Using a cell-based assay, mouse Olfr96 was tested in an HEK293T cell line wherein the endogenous RTP1 gene has been activated and the odorant receptor chaperone was expressed. Flag-Rho-tagged receptor genes were co-transfected with the olfactory canonical G-protein Goff gene and were exposed to increasing concentrations of the Musk odorants Tonalide, Vulcanolide, and Muscone. Odorant-induced activity was detected by measuring the cAMP increase in the cytosol using an HTRF based kit (CisBio, cAMP dynamic 2 kit, 62AM4PEJ). […] In an additional repeat experiment using the same conditions, mouse Olfr96 and corresponding human ortholog OR11A1 were tested side by side in duplicate with a musk diversity set for specificity assessment.

human ortholog OR11A1 = biological target: T1, human ortholog OR11A1 (Homo sapiens, UniProt Q9GZK7); assay: cell-based cAMP HTRF dose-response assay, tagged human OR11A1 in HEK293T cells; settings: Lucy-Flag-Rho-tagged receptor, in duplicate, musk diversity set, FIG. 3
T1 construct: expressed in transfected cells
T1 sequence (Q9GZK7 1-315): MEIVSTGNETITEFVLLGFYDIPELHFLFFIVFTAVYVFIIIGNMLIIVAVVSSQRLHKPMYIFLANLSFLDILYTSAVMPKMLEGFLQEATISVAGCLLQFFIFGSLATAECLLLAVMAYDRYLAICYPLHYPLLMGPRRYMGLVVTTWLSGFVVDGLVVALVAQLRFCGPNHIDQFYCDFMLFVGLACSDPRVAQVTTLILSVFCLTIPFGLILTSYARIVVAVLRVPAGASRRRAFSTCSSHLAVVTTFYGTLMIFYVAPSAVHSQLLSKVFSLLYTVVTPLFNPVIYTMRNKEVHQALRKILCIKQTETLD
Source text: as §1, with “The above process and the results obtained so far serve to validate the process for rapid and reliable identification of mammalian odorant receptors for Musk compounds.” left out
Functional dose-response experiments were performed to evaluate the level of functional activity of the modified cell line. […] Odorant-induced activity was detected by measuring the cAMP increase in the cytosol using an HTRF based kit (CisBio, cAMP dynamic 2 kit, 62AM4PEJ). […]

[1] = repeat experiment, Lucy-Flag-Rho-tagged receptor, HEK293T, in duplicate, musk diversity set, FIG. 3
[2] = Flag-Rho-tagged receptor, HEK293T with activated RTP1, increasing concentrations of odorant, FIG. 2

Row | dose-dependent increase of OR11A1 receptor activity (cAMP increase in the cytosol) (human ortholog OR11A1) | SMILES | dose-dependent increase of Olfr96 receptor activity (cAMP increase in the cytosol) (mouse Olfr96; [1]) | dose-dependent increase of Olfr96 receptor activity (cAMP increase in the cytosol) (mouse Olfr96; [2])
1 | – | CC1C(C)(C)C2=C(C(=O)CCC2)C1(C)C (stereo not shown) [Cashmeran] | dose-dependent increase | –
2 | – | Cc1c([N+](=O)[O-])c(C)c([N+](=O)[O-])c(C(C)(C)C)c1[N+](=O)[O-] [Musk X] | dose-dependent increase | –
3 | – | CC(=O)c1cc2c(cc1C)C(C)(C)C(C)CC2(C)C (stereo not shown) [Tonalide] | dose-dependent increase | dose-dependent increase
4 | dose-dependent increase | Cc1cc2c(cc1C=O)C(C)(C)[C@@H](C)[C@H](C)C2(C)C [Vulcanolide] | dose-dependent increase | dose-dependent increase
